Test [1] addresses ERβ (Homo sapiens, UniProt Q92731). Put plainly: Cell-based ERβ luciferase reporter luminescence assay, agonist mode. The settings on record: read-out: ERβ agonist IC50; luciferase reporter cells, 22 h, duplicate. (A reporter such as luciferase makes a cellular process visible.)
The target of test [2] is T1, human ERα (Homo sapiens, UniProt P03372).
T1 sequence (P03372 1-595): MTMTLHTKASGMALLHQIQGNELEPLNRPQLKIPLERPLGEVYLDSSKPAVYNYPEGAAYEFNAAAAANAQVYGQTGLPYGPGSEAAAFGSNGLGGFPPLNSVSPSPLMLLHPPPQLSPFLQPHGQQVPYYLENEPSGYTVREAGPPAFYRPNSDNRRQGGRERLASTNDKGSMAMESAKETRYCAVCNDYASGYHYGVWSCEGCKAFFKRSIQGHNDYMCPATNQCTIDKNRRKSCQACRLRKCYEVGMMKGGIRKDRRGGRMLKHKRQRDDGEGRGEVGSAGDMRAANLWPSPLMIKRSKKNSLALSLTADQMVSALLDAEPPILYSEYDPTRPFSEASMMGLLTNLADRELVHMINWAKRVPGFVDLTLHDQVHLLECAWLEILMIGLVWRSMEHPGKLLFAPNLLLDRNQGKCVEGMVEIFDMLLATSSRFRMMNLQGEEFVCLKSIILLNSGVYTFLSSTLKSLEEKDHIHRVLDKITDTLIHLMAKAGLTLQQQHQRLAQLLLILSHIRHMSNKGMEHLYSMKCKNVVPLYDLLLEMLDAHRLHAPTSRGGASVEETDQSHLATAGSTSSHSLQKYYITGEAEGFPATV
Put plainly: Fluorescence polarization displacement assay with FITC-estradiol. The conditions noted are these: fluorescence polarization screen of twelve compounds. In kind it is binding. On the technique in general: Fluorescence polarisation rises when a labelled molecule tumbles more slowly, as on binding a larger partner.

Chain of ERβ (Q92731 whole entry): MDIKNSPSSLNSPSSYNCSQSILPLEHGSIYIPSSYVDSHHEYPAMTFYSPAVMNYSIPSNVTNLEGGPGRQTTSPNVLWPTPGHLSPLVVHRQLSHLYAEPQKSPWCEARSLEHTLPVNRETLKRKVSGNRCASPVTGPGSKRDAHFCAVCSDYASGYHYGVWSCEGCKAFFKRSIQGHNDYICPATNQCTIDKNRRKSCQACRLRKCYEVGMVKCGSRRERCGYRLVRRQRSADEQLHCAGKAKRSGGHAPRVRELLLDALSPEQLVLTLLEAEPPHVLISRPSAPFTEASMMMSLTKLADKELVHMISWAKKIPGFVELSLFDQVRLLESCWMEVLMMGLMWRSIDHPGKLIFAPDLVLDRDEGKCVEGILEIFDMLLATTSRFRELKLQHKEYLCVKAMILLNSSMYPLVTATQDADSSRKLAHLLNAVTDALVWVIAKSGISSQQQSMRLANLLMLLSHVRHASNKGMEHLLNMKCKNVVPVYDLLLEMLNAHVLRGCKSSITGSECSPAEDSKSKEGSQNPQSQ

One may read the IC50 as the concentration at which inhibition is half-maximal. Regarding `OC[C@H]1CCC[C@@H](c2ccc(O)cc2)CC1` (relative stereo) [Compound 18, cis-1-Hydroxymethyl-4-(4′-hydroxyphenyl)-cycloheptane], the IC50 in test [1] stood at 5.4 ± 0.3 nM. Besides, the “Affinity for ERα at concentrations as high as 1 μM (in words)” value in test [2] is “significant affinity”. In the case of `CCCOC(=O)C1CC[C@H]2[C@@H]3CCc4cc(O)ccc4[C@H]3CC[C@]12C` (stereo partly drawn) [Compound 4, n-Propyl 3-hydroxyestra-1,3,5(10)-triene-17-carboxylate], the “Affinity for ERα at concentrations as high as 1 μM (in words)” value in test [2] is given as “significant affinity”. Same read-out and setting: to `CC[C@H](C)C1=CC[C@H]2[C@@H]3CCc4cc(O)ccc4[C@H]3CC[C@]12C` [Compound 7, (20S) 3-Hydroxy-19,24-dinorchola-1,3,5(10),16-tetraene] belongs “significant affinity”; to `C[C@@H](CCO)C1=CC[C@H]2[C@@H]3CCc4cc(O)ccc4[C@H]3CC[C@]12C` [Compound 11, (20S) 3-Hydroxy-19,24-Dinorchola-1,3,5(10),16-tetraen-23-ol], “significant affinity”; to `CC1C[C@H](C)C2(CC[C@H]3[C@@H]4CCc5cc(O)ccc5[C@H]4CC[C@@]32C)O1` (stereo partly drawn) [Compound 13, 17,23-Epoxy-3-hydroxy-19-norchola-1,3,5(10)-triene], “significant affinity”.

(Values after article PMC4013293 (Bioorganic & medicinal chemistry, 2013).)
